Data from patent US20140120087A1, “TRIAZOLOPYRIDINES” (BAYER INTELLECTUAL PROPERTY GMBH, priority 2011, published 2014).

Columns and labels:
[1] = biological target: T1, Mps-1 kinase (Homo sapiens, UniProt P33981); experiment: Mps-1 kinase assay with 2 mM ATP (TR-FRET)
T1 sequence (P33981 1-857): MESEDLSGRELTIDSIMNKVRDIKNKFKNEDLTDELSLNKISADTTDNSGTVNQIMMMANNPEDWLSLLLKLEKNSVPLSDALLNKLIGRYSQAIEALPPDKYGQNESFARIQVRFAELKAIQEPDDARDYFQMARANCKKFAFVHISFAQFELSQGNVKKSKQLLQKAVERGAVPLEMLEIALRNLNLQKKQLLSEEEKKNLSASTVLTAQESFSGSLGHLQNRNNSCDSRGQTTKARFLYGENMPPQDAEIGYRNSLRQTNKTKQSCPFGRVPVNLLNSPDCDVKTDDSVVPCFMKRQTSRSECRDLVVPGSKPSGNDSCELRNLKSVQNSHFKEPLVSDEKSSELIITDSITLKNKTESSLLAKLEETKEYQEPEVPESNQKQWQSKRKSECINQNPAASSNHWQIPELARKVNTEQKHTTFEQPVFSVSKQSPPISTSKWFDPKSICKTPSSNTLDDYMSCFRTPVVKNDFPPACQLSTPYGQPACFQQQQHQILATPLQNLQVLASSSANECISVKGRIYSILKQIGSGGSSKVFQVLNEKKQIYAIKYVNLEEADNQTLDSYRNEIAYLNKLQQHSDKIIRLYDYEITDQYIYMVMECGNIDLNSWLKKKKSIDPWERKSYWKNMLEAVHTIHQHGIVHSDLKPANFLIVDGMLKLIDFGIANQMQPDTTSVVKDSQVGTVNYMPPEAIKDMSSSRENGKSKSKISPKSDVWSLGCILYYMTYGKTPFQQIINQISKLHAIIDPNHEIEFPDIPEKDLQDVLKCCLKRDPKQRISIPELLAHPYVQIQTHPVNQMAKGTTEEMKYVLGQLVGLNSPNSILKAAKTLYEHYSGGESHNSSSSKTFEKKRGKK

[2] = biological target: T1, Mps-1 kinase; experiment: Mps-1 kinase assay with 10 μM ATP (TR-FRET)

Row | Compound | IC50 [1] [nM] | IC50 [2] [nM]
1 | CC(C)(CO)NC(=O)c1ccc(Nc2nc3ccc(-c4ccc(NC(=O)Cc5ccc(F)cc5)cc4)cn3n2)c(OCC(F)(F)F)c1 [Example 12.22, 4-{[6-(4-{[(4-fluorophenyl)-acetyl]amino}phenyl)[1,2,4]triazolo[1,5-a]pyridin-2-yl]amino}-N-(1-hydroxy-2-methylpropan-2-yl)-3-(2,2,2-trifluoroethoxy)benzamide] | ≤ 1 | ≤ 1
2 | CN(C)CCNC(=O)c1ccc(Nc2nc3ccc(-c4ccc(NC(=O)Cc5ccc(F)cc5)cc4)cn3n2)c(OCC(F)(F)F)c1 [Example 12.23, N-[2-(dimethylamino)ethyl]-4-{[6-(4-{[(4-fluorophenyl)-acetyl]amino}phenyl)[1,2,4]triazolo[1,5-a]pyridin-2-yl]amino}-3-(2,2,2-trifluoro-ethoxy)benzamide] | ≤ 1 | ≤ 1
3 | NC(=O)c1ccc(Nc2nc3ccc(-c4ccc(NC(=O)Cc5ccc(F)cc5)cc4)cn3n2)c(OC(F)(F)F)c1 [Example 12.25, 4-{[6-(4-{[(4-fluorophenyl)-acetyl]amino}phenyl)[1,2,4]triazolo[1,5-a]pyridin-2-yl]amino}-3-(trifluoro-methoxy)benzamide] | 2.7 | ≤ 1
4 | COc1cc(S(C)(=O)=O)ccc1Nc1nc2ccc(-c3ccc(NC(=O)Cc4ccccc4)cc3)cn2n1 [Example 12.42, N-[4-(2-{[2-methoxy-4-(methylsulfonyl)phenyl]-amino}[1,2,4]triazolo[1,5-a]pyridin-6-yl)phenyl]-2-phenylacetamide] | 12 | ≤ 1
5 | COc1cc(C(N)=O)ccc1Nc1nc2ccc(-c3ccc(C(=O)NCc4ccc(F)cc4)cc3)cn2n1 [Example 12.43, 4-[(6-{4-[(4-fluorobenzyl)-carbamoyl]phenyl}[1,2,4]triazolo [1,5-a]pyridin-2-yl)-amino]-3-methoxy-benzamide] | ≤ 1 | ≤ 1
6 | COCCNC(=O)c1ccc(Nc2nc3ccc(-c4ccc(C(=O)NCc5ccc(F)cc5)cc4)cn3n2)c(OC)c1 [Example 12.44, 4-[(6-{4-[(4-fluorobenzyl)-carbamoyl]phenyl}[1,2,4]triazolo [1,5-a]pyridin-2-yl)-amino]-3-methoxy-N-(2-methoxyethyl)benzamide] | 1.6 | ≤ 1
7 | COc1cc(C(=O)NCCF)ccc1Nc1nc2ccc(-c3ccc(C(=O)NCc4ccc(F)cc4)cc3)cn2n1 [Example 12.45, 4-[(6-{4-[(4-fluorobenzyl)-carbamoyl]phenyl}[1,2,4]triazolo [1,5-a]pyridin-2-yl)-amino]-N-(2-fluoroethyl)-3-methoxybenzamide] | 1.4 | ≤ 1
8 | COc1cc(C(=O)N(C)C)ccc1Nc1nc2ccc(-c3ccc(C(=O)NCc4ccc(F)cc4)cc3)cn2n1 [Example 12.46, 4-[(6-{4-[(4-fluorobenzyl)-carbamoyl]phenyl}[1,2,4]triazolo [1,5-a]pyridin-2-yl)-amino]-3-methoxy-N,N-dimethylbenzamide] | 3.5 | ≤ 1
9 | COc1cc(C(=O)NCC(F)F)ccc1Nc1nc2ccc(-c3ccc(C(=O)NCc4ccc(F)cc4)cc3)cn2n1 [Example 12.47, N-(2,2-difluoroethyl)-4-[(6-{4-[(4-fluorobenzyl)-carbamoyl]phenyl}[1,2,4]triazolo [1,5-a]pyridin-2-yl)amino]-3-methoxy-benzamide] | 2.4 | ≤ 1
10 | COc1cc(C(=O)NCCN(C)C)ccc1Nc1nc2ccc(-c3ccc(C(=O)NCc4ccc(F)cc4)cc3)cn2n1 [Example 12.48, N-[2-(dimethylamino)ethyl]-4-[(6-{4-[(4-fluorobenzyl)-carbamoyl]phenyl}[1,2,4]triazolo [1,5-a]pyridin-2-yl)amino]-3-methoxy-benzamide] | 1.3 | ≤ 1

Now from value to molecule:

Row | IC50 [1] [nM] | IC50 [2] [nM] | Compound
11 | 1.2 | ≤ 1 | CC(C)S(=O)(=O)c1ccc(Nc2nc3ccc(-c4ccc(NC(=O)Cc5ccc(F)cc5)cc4)cn3n2)c(OC(F)F)c1 [Example 12.26, N-[4-(2-{[2-(difluoro-methoxy)-4-(propan-2-ylsulfonyl)phenyl]amino}-[1,2,4]triazolo[1,5-a]pyridin-6-yl)phenyl]-2-(4-fluorophenyl)acetamide]
12 | 9 | ≤ 1 | O=C(Cc1ccc(F)cc1)Nc1ccc(-c2ccc3nc(Nc4ccc(F)cc4OC(F)F)nn3c2)cc1 [Example 12.27, N-[4-(2-{[2-(difluoro-methoxy)-4-fluorophenyl]-amino}[1,2,4]triazolo[1,5-a]pyridin-6-yl)phenyl]-2-(4-fluorophenyl)acetamide]
13 | ≤ 1 | ≤ 1 | Cc1cc(C(N)=O)ccc1Nc1nc2ccc(-c3ccc(NC(=O)Cc4ccc(F)cc4)cc3)cn2n1 [Example 12.28, 4-{[6-(4-{[(4-fluorophenyl)-acetyl]amino}phenyl)[1,2,4]triazolo[1,5-a]pyridin-2-yl]amino}-3-methyl-benzamide]
14 | 2.3 | ≤ 1 | Cc1cc(C(=O)NCC(F)(F)F)ccc1Nc1nc2ccc(-c3ccc(NC(=O)Cc4ccc(F)cc4)cc3)cn2n1 [Example 12.29, 4-{[6-(4-{[(4-fluorophenyl)-acetyl]amino}phenyl)[1,2,4]triazolo[1,5-a]pyridin-2-yl]amino}-3-methyl-N-(2,2,2-trifluoroethyl)-benzamide]
15 | 4.3 | ≤ 1 | Cc1cc(C(=O)NCCF)ccc1Nc1nc2ccc(-c3ccc(NC(=O)Cc4ccc(F)cc4)cc3)cn2n1 [Example 12.30, N-(2-fluoroethyl)-4-{[6-(4-{[(4-fluorophenyl)acetyl]-amino}phenyl)[1,2,4]-triazolo[1,5-a]pyridin-2-yl]amino}-3-methyl-benzamide]
16 | 3.8 | ≤ 1 | Cc1cc(C(=O)N(C)C)ccc1Nc1nc2ccc(-c3ccc(NC(=O)Cc4ccc(F)cc4)cc3)cn2n1 [Example 12.31, 4-{[6-(4-{[(4-fluorophenyl)-acetyl]amino}phenyl)[1,2,4]triazolo[1,5-a]pyridin-2-yl]amino}-N,N,3-trimethyl-benzamide]
17 | 2.2 | ≤ 1 | Cc1cc(S(C)(=O)=O)ccc1Nc1nc2ccc(-c3ccc(NC(=O)Cc4ccc(F)cc4)cc3)cn2n1 [Example 12.32, 2-(4-fluorophenyl)-N-[4-(2-{[2-methyl-4-(methyl-sulfonyl)phenyl]amino}-[1,2,4]triazolo[1,5-a]pyridin-6-yl)phenyl]acetamide]
18 | 6.6 | ≤ 1 | Cc1cc(NS(C)(=O)=O)ccc1Nc1nc2ccc(-c3ccc(NC(=O)Cc4ccc(F)cc4)cc3)cn2n1 [Example 12.34, 2-(4-fluorophenyl)-N-{4-[2-({2-methyl-4-[(methyl-sulfonyl)amino]phenyl}-amino)[1,2,4]triazolo[1,5-a]pyridin-6-yl]phenyl}-acetamide]
19 | 2.1 | ≤ 1 | COc1ccc(Nc2nc3ccc(-c4ccc(NC(=O)Cc5ccc(F)cc5)cc4)cn3n2)c(C)c1 [Example 12.35, 2-(4-fluorophenyl)-N-(4-{2-[(4-methoxy-2-methyl-phenyl)amino][1,2,4]-triazolo[1,5-a]pyridin-6-yl}-phenyl)acetamide]
20 | 3.5 | ≤ 1 | Cc1cc(N(C)C)ccc1Nc1nc2ccc(-c3ccc(NC(=O)Cc4ccc(F)cc4)cc3)cn2n1 [Example 12.36, N-[4-(2-{[4-(dimethylamino)-2-methylphenyl]-amino}[1,2,4]triazolo[1,5-a]pyridin-6-yl)phenyl]-2-(4-fluorophenyl)acetamide]
21 | 13 | ≤ 1 | CCNC(=O)c1cc(C)c(Nc2nc3ccc(-c4ccc(NC(=O)Cc5ccc(F)cc5)cc4)cn3n2)cn1 [Example 12.37, N-ethyl-5-{[6-(4-{[(4-fluoro-phenyl)acetyl]amino}-phenyl)[1,2,4]triazolo[1,5-a]pyridin-2-yl]amino}-4-methylpyridine-2-carboxamide]
22 | 16 | ≤ 1 | CS(=O)(=O)c1ccc(Nc2nc3ccc(-c4ccc(NC(=O)Cc5ccc(F)cc5)cc4)cn3n2)c(F)c1 [Example 12.39, N-[4-(2-{[2-fluoro-4-(methylsulfonyl)phenyl]-amino}[1,2,4]triazolo[1,5-a]pyridin-6-yl)phenyl]-2-(4-fluorophenyl)acetamide]
23 | 9.9 | ≤ 1 | COc1cc(S(C)(=O)=O)ccc1Nc1nc2ccc(-c3ccc(NC(=O)Cc4ccc(F)c(C)c4)cc3)cn2n1 [Example 12.40, 2-(4-fluoro-3-methylphenyl)-N-[4-(2-{[2-methoxy-4-(methylsulfonyl)phenyl]-amino}[1,2,4]triazolo[1,5-a]pyridin-6-yl)phenyl]-acetamide]
24 | 7.2 | ≤ 1 | COc1cc(S(C)(=O)=O)ccc1Nc1nc2ccc(-c3ccc(NC(=O)Cc4ccc(Cl)cc4)cc3)cn2n1 [Example 12.41, 2-(4-chlorophenyl)-N-[4-(2-{[2-methoxy-4-(methyl-sulfonyl)phenyl]amino}-[1,2,4]triazolo[1,5-a]pyridin-6-yl)phenyl]acetamide]
